The results in this text go back to PubChem BioAssay AID1259348 (Broad Institute, 2017).

The experiment addresses Insulin-degrading enzyme (Homo sapiens) (UniProt P14735). Description: IDE catalytic activity blockers, fluorogenic substrate – biochemical, kinetic mode, counter-screen for IDE exo-site inhibitor project, dose response (AID 1259348).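 As to z-score: purified IDE bound to fluorescein-labelled 6b probe FL-6b at the exo-site; probe displacement lowers polarization so hits show a drop in FP signal.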 As to conditions: purified human IDE, fluorogenic decapeptide proteolysis; for z-score: measured here: primary FP probe displacement screen, stronger effect = lower value. On the technique in general: A counterscreen serves to expose hits that act by an unwanted route or on another target.

The structures appear in SMILES notation. The source made the active and inactive calls.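 The calls were made as follows: active = any compound with an IC50 of 100 nM or lower; inactive = the rest.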

Insulin-degrading enzyme (Homo sapiens), sequence (P14735 42-1019 limits assumed): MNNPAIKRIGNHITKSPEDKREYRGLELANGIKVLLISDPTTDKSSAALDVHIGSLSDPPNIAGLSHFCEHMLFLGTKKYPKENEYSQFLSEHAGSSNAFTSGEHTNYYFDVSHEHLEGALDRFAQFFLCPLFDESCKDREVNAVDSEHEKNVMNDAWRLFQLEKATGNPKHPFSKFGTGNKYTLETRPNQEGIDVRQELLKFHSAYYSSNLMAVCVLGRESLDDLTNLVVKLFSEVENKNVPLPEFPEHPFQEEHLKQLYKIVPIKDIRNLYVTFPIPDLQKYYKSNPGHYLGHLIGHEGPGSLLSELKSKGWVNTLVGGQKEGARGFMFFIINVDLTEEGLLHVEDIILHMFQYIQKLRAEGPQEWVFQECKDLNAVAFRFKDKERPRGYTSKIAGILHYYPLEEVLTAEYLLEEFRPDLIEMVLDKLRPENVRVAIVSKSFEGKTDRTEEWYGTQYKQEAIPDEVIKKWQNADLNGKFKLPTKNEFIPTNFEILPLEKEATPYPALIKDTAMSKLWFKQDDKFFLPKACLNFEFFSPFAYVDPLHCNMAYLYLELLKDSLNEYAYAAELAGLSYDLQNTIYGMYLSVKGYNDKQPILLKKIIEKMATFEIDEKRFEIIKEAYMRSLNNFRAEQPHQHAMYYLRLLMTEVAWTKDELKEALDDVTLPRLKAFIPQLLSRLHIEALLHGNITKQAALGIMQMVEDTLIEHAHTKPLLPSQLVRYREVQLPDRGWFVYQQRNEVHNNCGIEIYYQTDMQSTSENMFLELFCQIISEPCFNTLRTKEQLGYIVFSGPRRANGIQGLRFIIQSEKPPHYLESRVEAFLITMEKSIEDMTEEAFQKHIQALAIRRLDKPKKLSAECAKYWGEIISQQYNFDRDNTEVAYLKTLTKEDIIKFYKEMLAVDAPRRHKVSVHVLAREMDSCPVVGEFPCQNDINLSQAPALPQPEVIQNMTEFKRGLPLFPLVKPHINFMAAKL

Broadly, the IC50 is the midpoint of a concentration-inhibition curve. Regarding `Cc1ccccc1-c1ccc([C@H]2[C@H]3CN(C(=O)NC4CCCC4)CC(=O)N3[C@H]2CO)cc1`, the IC50 was 6 µM and the z-score was -12.4.
Take `Cc1ccccc1-c1ccc([C@H]2[C@@H](CO)N3C(=O)CN(C(=O)c4cccnc4)C[C@H]23)cc1`: the IC50 is 2 µM and the z-score is -17.2.
On the same counts, the results for `CO[C@H]1CN(C)C(=O)c2cc(NC(=O)c3ccc(Oc4ccccc4)cc3)ccc2OC[C@@H](C)NC[C@@H]1C` are 2.9 µM and -13.2.
On the same counts, the results for `Cc1ccccc1-c1ccc([C@@H]2[C@@H](CO)N3CCCCN(C(=O)NC4CCCC4)C[C@H]23)cc1` are 3.6 µM and -14.5.
`O=C(NC1CCCC1)N1CC(=O)N2[C@H](CO)[C@@H](c3ccc(-c4cccnc4)cc3)[C@@H]2C1`: the 50% inhibitory concentration (IC50) was 14 µM and the z-score is -12.2.
`Cc1ccccc1-c1ccc([C@H]2[C@@H](CO)N3CCCCN(C(=O)c4cccnc4)C[C@@H]23)cc1`: the IC50 is 12.5 µM and the z-score is -4.79.
On the same counts, the results for `Cc1ccccc1-c1ccc([C@@H]2[C@H]3CN(C(=O)c4ccncc4)CC(=O)N3[C@H]2CO)cc1` are 4.2 µM and -13.6.
With `Cc1ccccc1-c1ccc([C@H]2[C@H](CO)N3C(=O)CN(S(C)(=O)=O)C[C@@H]23)cc1`, the 50% inhibitory concentration (IC50) is 17.5 µM and the z-score is -1.37.
For `Cc1ccccc1-c1ccc([C@H]2[C@@H](CO)N3CCCCN(S(=O)(=O)c4cn(C)cn4)C[C@H]23)cc1`, the IC50 was 2.2 µM and the z-score is -16.6.
`CCS(=O)(=O)N1CCCCN2[C@H](CO)[C@@H](c3ccc(-c4ccccc4C)cc3)[C@@H]2C1`: the IC50 was 0.41 µM and the z-score is -18.3.
Regarding `Cc1cccc(-c2ccc([C@@H]3[C@H]4CN(C(=O)c5ccncc5)CCCCN4[C@H]3CO)cc2)c1`, the IC50 is 4.9 µM and the z-score is -17.
For `CCCNC(=O)N1CC(=O)N2[C@@H](CO)[C@H](c3ccc(-c4cccc(C)c4)cc3)[C@@H]2C1`, in that order: 2.4 µM and -15.8.
In the case of `COc1ccccc1-c1ccc([C@H]2[C@@H](CO)N3CCCCN(C(=O)c4cccnc4)C[C@H]23)cc1`, the IC50 is 13.2 µM and the z-score was -12.8.
Take `COc1ccccc1-c1ccc([C@H]2[C@@H](CO)N(C(=O)NC(C)C)[C@H]2C#N)cc1`: the IC50 was 20 µM and the z-score is -16.3.
For the compound `Cc1ccccc1-c1ccc([C@H]2[C@@H](CO)N3CCCCN(S(=O)(=O)c4cn(C)cn4)C[C@@H]23)cc1`, the IC50 was > 100 µM (inactive) and the z-score is -3.44.
Take `CO[C@H]1CN(C)C(=O)c2cc(NC(=O)c3ccc(Oc4ccccc4)cc3)ccc2OC[C@H](C)NC[C@H]1C`: the IC50 is 2.8 µM and the z-score was -14.2.
For the compound `Cc1cccc(-c2ccc([C@@H]3[C@H](CO)N4CCCCN(S(=O)(=O)c5cn(C)cn5)C[C@@H]34)cc2)c1`, the IC50 was 2.1 µM and the z-score was -19.5.
For `Cc1ccccc1-c1ccc(C2[C@@H]3CN(Cc4cocn4)C[C@H]2N3)cc1` (some centres not stated), the IC50 is 6.7 µM and the z-score was -3.01.
Consider `Cc1ccccc1-c1ccc([C@H]2[C@@H](CO)N3CCCCN(C(=O)Nc4cccc(F)c4)C[C@@H]23)cc1`, for which the half-inhibitory concentration (IC50) is 3.8 µM and the z-score was -4.36.
For `Cc1ccccc1-c1ccc([C@H]2[C@@H](CO)N3CCCCN(C(=O)Cc4ccccn4)C[C@@H]23)cc1`, in that order: 50 µM and -5.7.
Turning to `Cc1ccccc1-c1ccc([C@H]2[C@@H](CO)N3CCCCN(C(=O)Nc4ccc(F)cc4)C[C@@H]23)cc1`, the IC50 is 3 µM and the z-score was -1.63.
For the compound `O=C(c1ccccn1)N1CC(=O)N2[C@@H](CO)[C@@H](c3ccc(C#Cc4ccccc4)cc3)[C@@H]2C1`, the IC50 is 5.2 µM and the z-score was -19.9.
With `COc1ccc(NC(=O)N2CCCCN3[C@H](CO)[C@H](c4ccc(-c5ccccc5C)cc4)[C@@H]3C2)cc1`, the IC50 was 3.4 µM and the z-score was -0.82.
Consider `Cc1ccccc1-c1ccc([C@H]2[C@@H](CO)N3CCCCN(Cc4cccnc4)C[C@H]23)cc1`, for which the IC50 is 4.8 µM and the z-score was -11.4.
As for `CCCNC(=O)N1CC(=O)N2[C@H](CO)[C@@H](c3ccc(-c4cccc(C)c4)cc3)[C@@H]2C1`, the IC50 was 0.77 µM and the z-score was -22.4.
Consider `Cc1ccccc1-c1ccc([C@H]2[C@H](CO)N3C(=O)CN(C(=O)c4ccncc4)C[C@@H]23)cc1`, for which the IC50 was 4.5 µM and the z-score was -7.39.
As for `Cc1ccccc1-c1ccc(C2[C@@H]3CN(C(=O)c4cnccn4)C[C@H]2N3)cc1` (some centres not stated), the IC50 was 2 µM and the z-score is -20.
Take `Cc1cccc(-c2ccc([C@@H]3[C@@H](CO)N4C(=O)CN(C(=O)Cc5ccccn5)C[C@@H]34)cc2)c1`: the IC50 is 3.3 µM and the z-score was -11.8.
Turning to `Cc1ccccc1-c1ccc([C@H]2[C@H](CO)N3C(=O)CN(C(=O)Nc4cccc(F)c4)C[C@@H]23)cc1`, the IC50 was 4 µM and the z-score is -3.03.
Turning to `Cc1ccccc1-c1ccc([C@H]2[C@@H](CO)N3CCCCN(S(=O)(=O)c4ccc(F)cc4)C[C@@H]23)cc1`, the IC50 is 85 µM and the z-score came to 3.66.
As for `Cc1ccccc1-c1ccc([C@H]2[C@@H](CO)N3CCCCN(CC4CC4)C[C@@H]23)cc1`, the IC50 is 45 µM and the z-score was -3.48.
Turning to `Cc1ccccc1-c1ccc(C2[C@@H]3CN(C(=O)C4CCCCC4)C[C@H]2N3)cc1` (some centres not stated), the IC50 is 1.5 µM and the z-score is -13.9.
Regarding `Cc1cccc(-c2ccc([C@@H]3[C@@H](CO)N4CCCCN(C(=O)c5ccc6c(c5)OCO6)C[C@@H]34)cc2)c1`, the IC50 is > 100 µM (inactive).
For the compound `COc1ccccc1-c1ccc(C2[C@@H]3CN(C(=O)c4cccnc4)C[C@H]2N3)cc1` (some centres not stated), the IC50 was 7.1 µM and the z-score was -13.8.
With `CCS(=O)(=O)N1CCCCN2[C@@H](CO)[C@@H](c3ccc(C#Cc4ccccc4OC)cc3)[C@@H]2C1`, the IC50 is 1.8 µM and the z-score was -19.7.
As for `O=C(NC1CCCC1)N1CCCCN2[C@@H](CO)[C@H](c3ccc(/C=C/c4ccccc4)cc3)[C@@H]2C1`, the IC50 is 0.88 µM and the z-score was -14.8.
On the same counts, the results for `COc1ccccc1C#Cc1ccc([C@H]2[C@H]3CN(C(=O)C4CCC4)CCCCN3[C@H]2CO)cc1` are > 100 µM (inactive) and -17.5.
Regarding `COCC(=O)N1CCCCN2[C@H](CO)[C@@H](c3ccc(-c4cccc(C)c4)cc3)[C@@H]2C1`, the half-inhibitory concentration (IC50) was 16 µM and the z-score is -5.29.
For `Cc1ccccc1-c1ccc([C@H]2[C@H](CO)N3CCCCN(CC4CC4)C[C@@H]23)cc1`, the IC50 is 30 µM and the z-score is -2.04.
For `Cc1cccc(-c2ccc([C@@H]3[C@@H](CO)N4CCCCN(CCC(F)(F)F)C[C@@H]34)cc2)c1`, in that order: 71.5 µM and -0.68.
On the same counts, the results for `Cc1ccccc1-c1ccc([C@@H]2[C@@H](CO)N3CCCCN(C(=O)CN4CCOCC4)C[C@@H]23)cc1` are 6.4 µM and -8.
As for `Cc1ccccc1-c1ccc([C@@H]2[C@H]3CN(S(=O)(=O)c4cn(C)cn4)CCCCN3[C@H]2CO)cc1`, the IC50 is 1.7 µM and the z-score was -18.5.
For `COc1ccccc1-c1ccc([C@H]2[C@@H](CO)N3CCCCN(C(=O)c4ccncc4)C[C@H]23)cc1`, in that order: 4.9 µM and -17.2.
As to `Cc1ccccc1-c1ccc([C@H]2[C@H](CO)N3C(=O)CN(C(=O)c4cccnc4)C[C@@H]23)cc1`, the IC50 was 6.1 µM and the z-score is -12.4.
`Cc1cccc(-c2ccc([C@H]3[C@@H](CO)N4CCCCN(C(=O)c5ccncc5)C[C@H]34)cc2)c1`: the half-maximal inhibitory concentration (IC50) is 3 µM and the z-score is -18.3.
Consider `CN1C(=O)c2cc(NC(=O)Nc3ccccc3Cl)ccc2OC[C@H]2O[C@H](CC(=O)NCCCN3CCOCC3)CC[C@@H]21`, for which the IC50 was 1.7 µM and the z-score was -14.2.
On to `Cc1cccc(-c2ccc([C@@H]3[C@@H](CO)N4CCCCN(C(=O)c5cccnc5)C[C@@H]34)cc2)c1`, for which the IC50 is > 100 µM (inactive) and the z-score is -3.25.
For the compound `COc1ccccc1-c1ccc([C@H]2[C@@H](CO)N3CCCCN(C(=O)NC4CCCC4)C[C@H]23)cc1`, the IC50 is 2.6 µM and the z-score was -19.1.
As for `Cc1ccccc1-c1ccc([C@@H]2[C@H](CO)N3CCCCN(C(=O)NC4CCCC4)C[C@@H]23)cc1`, the IC50 is 1.55 µM and the z-score was -19.
As for `COc1cccc(-c2ccc([C@@H]3[C@@H](CO)N4CCCCN(CC5CCOCC5)C[C@@H]34)cc2)c1`, the IC50 was 30 µM.
Consider `OC[C@H]1[C@@H](c2ccc(C#Cc3ccccc3F)cc2)[C@@H]2CN(Cc3cncnc3)CCCCN12`, for which the half-maximal inhibitory concentration (IC50) was 5.2 µM and the z-score is -15.1.
Consider `Cc1ccccc1-c1ccc([C@@H]2[C@H](CO)N3CCCCN(C(=O)Cc4ccccn4)C[C@@H]23)cc1`, for which the IC50 was 4.9 µM and the z-score was -15.5.
For the compound `Cc1ccccc1-c1ccc([C@@H]2[C@@H](CO)N3C(=O)CN(C(=O)Cc4ccccn4)C[C@@H]23)cc1`, the IC50 was 2.7 µM and the z-score was -19.9.
In the case of `Cc1ccccc1-c1ccc([C@H]2[C@@H](CO)N3CCCCN(C(=O)c4cccnc4)C[C@H]23)cc1`, the IC50 is 3.1 µM and the z-score is -16.5.
For `Cc1ccccc1-c1ccc([C@H]2[C@H](CO)N3C(=O)CN(C(=O)c4ccc(F)cc4)C[C@@H]23)cc1`, in that order: 3 µM and -16.5.
Regarding `COc1ccccc1-c1ccc([C@@H]2[C@@H](C#N)N(C(=O)c3cccnc3)[C@@H]2CO)cc1`, the IC50 is 1.2 µM and the z-score was -33.8.
In the case of `Cc1ccccc1-c1ccc([C@H]2[C@@H](CO)N3CCCCN(C(=O)NC4CCCC4)C[C@H]23)cc1`, the IC50 is 0.88 µM and the z-score was -17.3.
